Reference: US10975071B2, “Inhibitors of KRAS G12C mutant proteins” (Araxes Pharma LLC, priority 2015, dated 2021)

Target: T1, KRAS G12C 1-169, his-tagged protein, GDP-loaded (Homo sapiens, UniProt P01116, G12C)
T1 construct: KRAS G12C 1-169, his-tagged protein, GDP-loaded
Experiment: Biochemical assay: covalent binding to KRAS G12C measured by mass spectrometry
Description: Test compounds are prepared as 10 mM stock solutions in DMSO (Fisher cat# BP-231-100). KRAS G12C 1-169, his-tagged protein, GDP-loaded is diluted to […] in buffer (20 mM Hepes, 150 mM NaCl, 1 mM MgCl2). Compounds are tested for activity as follows:
Compounds are diluted to 50× final test concentration in DMSO in 96-well storage plates. Compound stock solutions are vortexed before use and observed carefully for any sign of precipitation. Dilutions are as follow: • For 100 μM final compound concentration, compounds are diluted to 5000 μM (5 μl 10 mM compound stock +5 μl DMSO and mixed well by pipetting. • For 30 μM final compound concentration, compounds are diluted to 1500 μM (3 μl 10 mM compound stock +17 μl DMSO) and mixed well by pipetting. • For 10 μM final compound concentration, compounds are diluted to 500 μM (2 μl 10 mM compound stock +38 μl DMSO) and mixed well by pipetting. 49 μl of the stock protein solution is added to each well of a 96-well PCR plate (Fisher cat#1423027). […] of the diluted 50× compounds are added to appropriate wells in the PCR plate using 12-channel pipettor. Reactions are mixed carefully and thoroughly by pipetting up/down with a 200 μl multi-channel pipettor. The plate is sealed well with aluminum plate seal, and stored in drawer at room temperature for 24 hrs. 5 μl of 2% formic acid (Fisher cat# Al 117) in DI H2O is then added to each well followed by mixing with a pipette. The plate is then resealed with aluminum seal and stored on dry ice until analyzed as described below.
The above described assays are analyzed by mass spectrometry according to the following procedure:
The MS instrument is set to positive polarity, 2 GHz resolution, and low mass (1700) mode and allowed to equilibrate for 30 minutes. The instrument is then calibrated, switched to acquisition mode and the appropriate method loaded.
After another 30 minute equilibration time, a blank batch (i.e., buffer) is run to ensure equipment is operating properly. The samples are thawed at 37° C. for 10 minutes, briefly centrifuged, and transfer to the bench top. Wells Al and H12 are spiked with 1 uL 500 uM internal standard peptide, and the plates centrifuged at 2000×g for 5 minutes. The method is then run and masses of each individual well recorded.
The masses (for which integration data is desired) for each well are pasted into the platemap and exported from the analysis. Masses for the internal standards are exported as well. The data at 50 ppm is extracted for the +19 charge state, and identity of well Al is assigned using the internal standard spike and integrated. Peak data is exported as a TOF list and the above steps are repeated individually, for the +20, 21, 22, 23, 24, and 25 charge states.

T1 sequence (P01116 1-169 isoform P01116-2 G12C): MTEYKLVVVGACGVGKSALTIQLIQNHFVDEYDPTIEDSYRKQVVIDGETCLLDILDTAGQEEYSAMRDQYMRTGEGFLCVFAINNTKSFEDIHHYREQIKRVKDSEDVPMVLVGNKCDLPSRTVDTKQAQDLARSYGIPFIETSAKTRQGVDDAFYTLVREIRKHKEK

SMILES	Binding %
C=CC(=O)N1CCN(c2c(NC(C)=O)nc3cc(-c4c(F)cccc4OC)c(Cl)cn23)CC1 [Compound 21, N-(3-(4-acryloylpiperazin-1-yl)-6-chloro-7-(2-fluoro-6-methoxyphenyl)imidazo[1,2-a]pyridin-2-yl)acetamide]	+ (+ indicates binding activity up to 5)
C=CC(=O)N1CCN(c2c(NC(C)=O)nc3cc(-c4c(O)cccc4F)c(C)cn23)CC1 [Compound 24, N-(3-(40 acryloylpiperazin-1-yl)-7-(2-fluoro-6-hydroxyphenyl)-6-methylimidazo[1,2-a]pyridin-2-yl)acetamide]	+ (+ indicates binding activity up to 5)
C=CC(=O)N1CCN(C2=COC3C=C(c4c(O)cccc4F)C(Cl)=CC23)CC1 (stereo not drawn) [Compound 26, 1-(4-(5-chloro-6-(2-fluoro-6-hydroxyphenyl)-3a,7a-dihydrobenzofuran-3-yl)piperazin-1-yl)prop-2-en-1-one]	+++ (+++ indicates binding activity 50% or greater)
C=CC(=O)N1CCN(c2cnc3c(F)c(-c4c(O)cccc4F)c(Cl)cn23)CC1 [Compound 20, 1-(4-(6-chloro-8-fluoro-7-(2-fluoro-6-hydroxyphenyl)imidazo[1,2-a]pyridin-3-yl)piperazin-1-yl)prop-2-en-1-one]	+++ (+++ indicates binding activity 50% or greater)
C=CC(=O)N1CCN(C2=NCC(=O)Nc3c2cc(Cl)c(-c2c(O)cccc2F)c3F)CC1 [Compound 25, 5-(4-acryloylpiperazin-1-yl)-7-chloro-9-fluoro-8-(2-fluoro-6-hydroxyphenyl)-1,3-dihydro-2H-benzo[e][1,4] diazepin-2-one]	+ (+ indicates binding activity up to 5)
C=CC(=O)N1CCN(c2cnc3cc(-c4c(C)ccc5[nH]ncc45)c(Cl)cn23)CC1 [Compound 1, 1-(4-(6-chloro-7-(5-methyl-1H-indazol-4-yl)imidazo[1,2-a]pyridin-3-yl)piperazin-1-yl)prop-2-en-1-one]	++ (++ indicates binding activity greater than 5% and up to 50%)
